Structures can show the parent of a compound that is named as a salt. Where two headings read alike, the source gives them in different places.
Experiments:
VEGF = VEGF ELISA Assay in HEK293 cells; assay type: cell-based; settings: Homo sapiens
Description: HEK293 cells are seeded in 96-well poly-lysine coated plates at 20,000 cells per well in DMEM (10% FBS, 1% NEAA, 0.1% glutamine). Following overnight incubation, the cells are washed with 100 μL of Opti-MEM (Gibco, Carlsbad, Calif.) to remove serum. Compound in DMSO is serially diluted (beginning with 100 μM) in Opti-MEM and added to the cells. The conditioned media is analyzed for VEGF with a Quantikine human VEGF immunoassay kit (R&D Systems, Minneapolis, Minn.). Optical density measurements at 450 nm are recorded using the Spectra Max 250 (Molecular Devices, Sunnyvale, Calif.). Data defined as % of DFO stimulation is used to calculate EC50 values with GraphPad Prism 4 software (San Diego, Calif.).

[1] = Solubility of salts in distilled deionized water (HPLC); assay type: physicochemical
Description: The formulator can determine the solubility of the pharmaceutically acceptable salts of the disclosed inhibitors by any method desirable. The following is a non-limiting example of a procedure for evaluating the solubility of a salt of a disclosed inhibitor. A suspension of tert-butyl-{[1-(4-chlorobenzyl)-3-hydroxy-2-oxo-1,2-dihydropyridin-4-yl]methyl}-piperazine-1-carboxylate methanesulfonate (26.6 mg) in distilled deionized water (3.0 mL) is sonicated for 20 min with water bath temperature under 25° C. The suspension is filtered to remove any insoluble salt. The clear filtrate solution (200 μL) is diluted with distilled deionized water (800 μL) and subjected to HPLC analysis. The following are results for the pharmaceutically acceptable salts outlined in Table VII above.

Staphylococcus aureus = settings: dose-dependent; cited from earlier work
S. aureus = settings: murine model of S. aureus skin infection; cited from earlier work
EPO = test: Mouse Serum EPO Assay; assay type: in vivo
Description: All animal work is conducted in accordance with the Guide for the Care and Use of Laboratory Animals (National Academy of Sciences; Copyright © 1996). Used in these experiments were 9-10 week old male C57Bl/6 mice from Charles River Laboratory (Portage, Mich.). The mice are orally dosed with vehicle (aqueous carbonate buffer, 50 mM; pH 9.0) or with the compound to be tested in vehicle at 50 mg/kg or 100 mg/kg. The animals are dosed three times: day 1 at 8 AM and 5 PM, and on day 2 at 8 AM. One hour after the first dose, unilateral arterial ligation is performed under anesthesia using isoflurane. The femoral artery is ligated proximal to the origin of the popliteal artery. The contralateral limb undergoes a sham surgical procedure. Ligation is performed in an alternating fashion between right and left hindlimbs. Two hours after the 8 AM dosing on day 2, blood is obtained by ventricular stick while the mice are anesthetized with isoflurane. Serum samples for EPO analysis are obtained using gel clot serum separation tubes. Heart, liver, and gastrocnemius muscles are harvested, snap-frozen in liquid nitrogen, and stored in −80° C. until use.
The mouse serum EPO is detected using Mouse Quantikine Erythropoietin ELISA kit from R&D Systems according to manufacturer's instructions.

[2] = test system: phosphoglycerate kinase (PGK) expression; test: PGK expression in murine embryonic fibroblasts; assay type: cell-based; settings: wild type murine embryonic fibroblasts, 1 μM and 10 μM (FIG. 12)
Description: FIG. 11 depicts the up regulation of phosphoglycerate kinase (PGK) expression in wild type murine embryonic fibroblasts as a result of treatment with compound a compound disclosed in Table VIII at dosages of 1 μM (E), 10 μM (F), and 50 μM (G) vs. wild type control (H) and the lack of up regulation of PGK expression in HIF-1 knock out cells as a result of treatment with a compound disclosed in Table VIII at dosages of 1 μM (A), 10 μM (B), and 50 μM (C) and HIF-1 knock out control (D). Both cell types were treated for 7 hours.

[3] = HEK293 cells, head prints IC50, method calculates EC50 from % of DFO stimulation, read-out: VEGF IC50

Compound	IC50 (VEGF; [3]) [µM]	other results
O=c1c(O)cccn1Cc1ccc(Cl)cc1 [Compound F3, 1-(4-chlorobenzyl)-3-hydroxypyridin-2(1H)-one]	7.4	–
CC(C)(C)OC(=O)N1CCN(Cc2ccn(Cc3ccc(Cl)cc3)c(=O)c2O)CC1 [Compound A41, tert-butyl 4-{[1-(4-chlorobenzyl)-3-hydroxy-2-oxo-1,2-dihydropyridin-4-yl]methyl}piperazine-1-carboxylate]	–	Solubility ([1]; distilled deionized water, sonicated 20 min, under 25° C., listed as Free base): ~1 µg/mL; IC50 (VEGF; HEK293, read-out: VEGF IC50 (μM)): 16.6 µM
Cc1ccc(S(=O)(=O)n2ccc(CN3CCN(c4ccc(Cl)nn4)CC3)c(O)c2=O)cc1 [Compound D14, 1-[(4-methylphenyl)sulfonyl]-3-hydroxy-4-{[4-(6-chloropyridazin-3-yl)piperazin-1-yl]methyl}pyridin-2(1H)-one]	19	–
NC(Cn1ccc(=O)c(O)c1)C(=O)O (centres unmarked) [mimosine]	–	capacity of human phagocytes and whole blood to kill Staphylococcus aureus (Staphylococcus aureus): boost; lesion size (S. aureus): reduce the lesion size
O=c1c(O)cccn1Cc1cccc(Cl)c1 [Compound F2, 1-(3-chlorobenzyl)-3-hydroxypyridin-2(1H)-one]	> 100	EC50 (EPO): 14 µM; PGK expression [2]: up regulation
CC(C)(C)OC(=O)N1CCN(Cc2ccn(Cc3ccc(Cl)cc3)c(=O)c2O)CC1 [hydrochloride, tert-butyl-{[1-(4-chlorobenzyl)-3-hydroxy-2-oxo-1,2-dihydropyridin-4-yl]methyl}-piperazine-1-carboxylate]	–	Solubility [1]: 5900 µg/mL
CC(C)(C)OC(=O)N1CCN(Cc2ccn(Cc3ccc(Cl)cc3)c(=O)c2O)CC1 [p-toluenesulfonate, tert-butyl-{[1-(4-chlorobenzyl)-3-hydroxy-2-oxo-1,2-dihydropyridin-4-yl]methyl}-piperazine-1-carboxylate]	–	Solubility [1]: 2300 µg/mL

Continued, in another order:

IC50 (VEGF; [3]) [µM]	Compound	other results
27.4	CC1CCC(NCc2ccn(Cc3ccccc3)c(=O)c2O)CC1 (centres unmarked) [Compound C17, 1-benzyl-3-hydroxy-4-[(4-methylcyclohexylamino)methyl]pyridin-2(1H)-one]	–
78	O=c1c(O)c(CN2CCN(c3ccc(Cl)nn3)CC2)ccn1Cc1ccccc1 [Compound B14, 1-benzyl-3-hydroxy-4-{[4-(6-chloropyridazin-3-yl)piperazin-1-yl]methyl}pyridin-2(1H)-one]	–
62.9	O=C1NCCCCC1NCc1ccn(Cc2ccccc2)c(=O)c1O (centres unmarked) [Compound C19, 3-[(1-benzyl-3-hydroxy-2-oxo-1,2-dihydropyridin-4-yl)methylamino]azepan-2-one]	–
53	COC[C@H]1CCCN1Cc1ccn(Cc2ccccc2)c(=O)c1O [Compound B5, (R)-1-benzyl-3-hydroxy-4-{[2-(methoxymethyl)pyrrolidin-1-yl]methyl}pyridin-2(1H)-one]	–
42	O=c1c(O)c(CNCc2ccccc2)ccn1Cc1ccc(Cl)cc1 [Compound C1, 1-(4-chlorobenzyl)-3-hydroxy-4-[(4-benzylamino)methyl]pyridin-2(1H)-one]	–
12.6	O=c1c(O)c(CN2CCN(Cc3ccccc3)CC2)ccn1Cc1ccccc1 [Compound B9, 1-benzyl-3-hydroxy-4-[(4-benzyipiperazin-1-yl)methyl]pyridin-2(1H)-one]	–
29.2	COc1ccccc1Cn1ccc(CN2CCCCCC2)c(O)c1=O [Compound A18, 1-(2-methoxybenzyl)-3-hydroxy-4-(azepan-1-ylmethyl)pyridin-2(1H)-one]	–
53	CSCCNCc1ccn(Cc2ccccc2)c(=O)c1O [Compound C33, 1-benzyl-3-hydroxy-4-{[2-(methylthio)ethylamino]methyl}pyridin-2(1H)-one]	–
27	Cc1ccc(S(=O)(=O)n2ccc(CN3CCC(N4CCCCC4)CC3)c(O)c2=O)cc1 [Compound D10, 1-[(4-methylphenyl)sulfonyl]-3-hydroxy-4-(1,4′-bipiperidin-1′-ylmethyl)pyridin-2(1H)-one]	–

From patent US10562854B2, “Prolyl hydroxylase inhibitors” (Aerpio Therapeutics, Inc., priority 2009, dated 2020)
